Reference: patent US20220289794A1, “SYNTHETIC ANTIMICROBIAL PEPTIDES” (priority 2019, published 2022)
Converted amounts (≈) assume the structure as drawn. Read-outs that look alike come from different tables or passages of the source. Non-standard residues stand in square brackets, D forms with d. Residues, ends and D or L forms follow the SMILES beside them. 2Nal = N[C@@H](Cc1ccc2ccccc2c1)C(=O)O; d2Nal = N[C@H](Cc1ccc2ccccc2c1)C(=O)O

Columns and labels:
in vitro = details: human, fresh human red blood cells (washed), pH 7.4
S. aureus ATCC 29213 = details: ATCC 29213
[1] = tested on: Methicillin-resistant Staphylococcus aureus MRSA (ATCC BAA-1556); details: ATCC BAA-1556
[2] = tested on: Pseudomonas aeruginosa (ATCC 27883)
[3] = tested on: Escherichia coli (ATCC 25922); details: ATCC 25922

SMILES | HC50 at 0.5 h (in vitro) [µg/mL] | MIC S. aureus ATCC 29213 (S. aureus ATCC 29213) [µg/mL] | MIC MRSA ATCC BAA-1556 [1] [µg/mL] | MIC P. aeruginosa ATCC 27883 ([2]; ATCC 27883) [µg/mL] | MIC E. coli ATCC 25922 [3] [µg/mL] | MIC P. aeruginosa ATCC 27883 ([2]; P. aeruginosa ATCC 27883) [µg/mL]
NCCCC[C@H]1NC(=O)[C@H](Cc2ccc3ccccc3c2)NC(=O)[C@H](Cc2ccc3ccccc3c2)NC(=O)[C@H](Cc2c[nH]c3ccccc23)NC(=O)[C@@H](CCCCN)NC(=O)[C@@H](CCCCN)NC(=O)[C@@H](CCCCN)NC(=O)[C@@H](CCCCN)NC1=O [IFX-134, c[lys-lys-lys-lys-lys-Trp-NaI-NaI]] (cyclo([2Nal][2Nal][dK][dK][dK][dK][dK]W)) | 890 | 12.5 (≈ 10.2 µM) | 12.5 (≈ 10.2 µM) | 128 (≈ 105 µM) | 128 (≈ 105 µM) | –
NCCCC[C@@H]1NC(=O)[C@H](CCCCN)NC(=O)[C@H](CCCCN)NC(=O)[C@@H](Cc2ccc3ccccc3c2)NC(=O)[C@@H](Cc2ccc3ccccc3c2)NC(=O)[C@H](Cc2c[nH]c3ccccc23)NC(=O)[C@H](CCCCN)NC1=O [IFX-127, c[Lys-Lys-Lys-Lys-Trp-naI-naI]] (cyclo(KKKKW[d2Nal][d2Nal])) | 540 | 6.2 (≈ 5.67 µM) | 6.2 (≈ 5.67 µM) | 128 (≈ 117 µM) | 64 (≈ 58.5 µM) | –
N=C(N)NCCC[C@@H]1NC(=O)[C@@H](CCCNC(=N)N)NC(=O)[C@H](CCCNC(=N)N)NC(=O)[C@@H](CCCNC(=N)N)NC(=O)[C@@H](Cc2ccc3ccccc3c2)NC(=O)[C@@H](Cc2ccc3ccccc3c2)NC(=O)[C@H](Cc2c[nH]c3ccccc23)NC1=O [IFX-110, c[arg-Arg-arg-Arg-Trp-naI-naI]] (cyclo([dR]R[dR]RW[d2Nal][d2Nal])) | 225 | 3.1 (≈ 2.57 µM) | 1.5 (≈ 1.24 µM) | – | 12.5 (≈ 10.4 µM) | 12.5 (≈ 10.4 µM)
N=C(N)NCCC[C@@H]1NC(=O)[C@H](Cc2ccc3ccccc3c2)NC(=O)[C@H](Cc2ccc3ccccc3c2)NC(=O)[C@H](Cc2c[nH]c3ccccc23)NC(=O)[C@H](CCCNC(=N)N)NC(=O)[C@@H](CCCNC(=N)N)NC(=O)[C@H](CCCNC(=N)N)NC1=O [IFX-106, c[Arg-Arg-arg-Arg-Trp-NaI-NaI]] (cyclo([2Nal][2Nal]RR[dR]RW)) | 175 | 1.5 (≈ 1.24 µM) | 1.5 (≈ 1.24 µM) | – | 25 (≈ 20.7 µM) | 12.5 (≈ 10.4 µM)
N=C(N)NCCC[C@H]1NC(=O)[C@H](Cc2ccc3ccccc3c2)NC(=O)[C@H](Cc2ccc3ccccc3c2)NC(=O)[C@@H](Cc2c[nH]c3ccccc23)NC(=O)[C@@H](CCCNC(=N)N)NC(=O)[C@@H](CCCNC(=N)N)NC(=O)[C@@H](CCCNC(=N)N)NC(=O)[C@@H](CCCNC(=N)N)NC1=O [IFX-123, c[arg-arg-arg-arg-arg-trp-NaI-NaI]] (cyclo([2Nal][2Nal][dR][dR][dR][dR][dR][dW])) | 190 | 3.1 (≈ 2.28 µM) | 3.1 (≈ 2.28 µM) | 16 (≈ 11.8 µM) | 16 (≈ 11.8 µM) | –
NCCCC[C@@H]1NC(=O)[C@H](CCCCN)NC(=O)[C@H](CCCCN)NC(=O)[C@H](Cc2ccc3ccccc3c2)NC(=O)[C@H](Cc2ccc3ccccc3c2)NC(=O)[C@H](Cc2c[nH]c3ccccc23)NC(=O)[C@H](CCCCN)NC(=O)[C@H](CCCCN)NC1=O [IFX-131, c[Lys-Lys-Lys-Lys-Lys-Trp-NaI-NaI]] (cyclo([2Nal][2Nal]KKKKKW)) | 690 | 6.2 (≈ 5.08 µM) | 12.5 (≈ 10.2 µM) | 64 (≈ 52.4 µM) | 128 (≈ 105 µM) | –
N=C(N)NCCC[C@@H]1NC(=O)[C@H](CCCNC(=N)N)NC(=O)[C@@H](CCCNC(=N)N)NC(=O)[C@H](CCCNC(=N)N)NC(=O)[C@H](Cc2ccc3ccccc3c2)NC(=O)[C@H](Cc2ccc3ccccc3c2)NC(=O)[C@H](Cc2c[nH]c3ccccc23)NC1=O [IFX-107, c[Arg-arg-Arg-Arg-Trp-NaI-NaI]] (cyclo([2Nal][2Nal]R[dR]RRW)) | 175 | 1.5 (≈ 1.24 µM) | 1.5 (≈ 1.24 µM) | 6.2 (≈ 5.14 µM) | 12.5 (≈ 10.4 µM) | –
N=C(N)NCCC[C@@H]1NC(=O)[C@H](CCCNC(=N)N)NC(=O)[C@H](CCCNC(=N)N)NC(=O)[C@@H](CCCNC(=N)N)NC(=O)[C@H](Cc2ccc3ccccc3c2)NC(=O)[C@H](Cc2ccc3ccccc3c2)NC(=O)[C@H](Cc2c[nH]c3ccccc23)NC1=O [IFX-108, c[arg-Arg-Arg-Arg-Trp-NaI-NaI]] (cyclo([2Nal][2Nal][dR]RRRW)) | 350 | 1.5 (≈ 1.24 µM) | 1.5 (≈ 1.24 µM) | 6.2 (≈ 5.14 µM) | 12.5 (≈ 10.4 µM) | –
N=C(N)NCCC[C@@H]1NC(=O)[C@H](CCCNC(=N)N)NC(=O)[C@H](CCCNC(=N)N)NC(=O)[C@H](Cc2ccc3ccccc3c2)NC(=O)[C@@H](Cc2ccc3ccccc3c2)NC(=O)[C@H](Cc2c[nH]c3ccccc23)NC(=O)[C@H](CCCNC(=N)N)NC1=O [IFX-103, c[Arg-Arg-Arg-Arg-Trp-naI-NaI]] (cyclo([2Nal]RRRRW[d2Nal])) | 170 | 3.1 (≈ 2.57 µM) | 3.1 (≈ 2.57 µM) | – | 12.5 (≈ 10.4 µM) | 12.5 (≈ 10.4 µM)
N=C(N)NCCC[C@H]1NC(=O)[C@@H](CCCNC(=N)N)NC(=O)[C@@H](CCCNC(=N)N)NC(=O)[C@@H](Cc2ccc3ccccc3c2)NC(=O)[C@@H](Cc2ccc3ccccc3c2)NC(=O)[C@@H](Cc2c[nH]c3ccccc23)NC(=O)[C@@H](CCCNC(=N)N)NC(=O)[C@@H](CCCNC(=N)N)NC1=O [IFX-124, c[arg-arg-arg-arg-arg-trp-naI-naI]] (cyclo([d2Nal][d2Nal][dR][dR][dR][dR][dR][dW])) | 410 | 3.1 (≈ 2.28 µM) | 3.1 (≈ 2.28 µM) | 16 (≈ 11.8 µM) | 16 (≈ 11.8 µM) | –
NCCCC[C@@H]1NC(=O)[C@H](CCCCN)NC(=O)[C@H](CCCCN)NC(=O)[C@H](Cc2ccc3ccccc3c2)NC(=O)[C@H](Cc2ccc3ccccc3c2)NC(=O)[C@H](Cc2c[nH]c3ccccc23)NC(=O)[C@H](CCCCN)NC1=O [IFX-126, c[Lys-Lys-Lys-Lys-Trp-NaI-NaI]] (cyclo([2Nal][2Nal]KKKKW)) | 610 | 12.5 (≈ 11.4 µM) | 12.5 (≈ 11.4 µM) | 128 (≈ 117 µM) | 64 (≈ 58.5 µM) | –
NCCCC[C@@H]1NC(=O)[C@@H](CCCCN)NC(=O)[C@H](CCCCN)NC(=O)[C@@H](Cc2ccc3ccccc3c2)NC(=O)[C@@H](Cc2ccc3ccccc3c2)NC(=O)[C@H](Cc2c[nH]c3ccccc23)NC(=O)[C@@H](CCCCN)NC1=O [IFX-129, c[Lys-lys-Lys-lys-Trp-naI-naI]] (cyclo(K[dK]K[dK]W[d2Nal][d2Nal])) | 420 | 3.1 (≈ 2.84 µM) | 3.1 (≈ 2.84 µM) | 64 (≈ 58.5 µM) | 64 (≈ 58.5 µM) | –
N=C(N)NCCC[C@@H]1NC(=O)[C@H](Cc2ccc3ccccc3c2)NC(=O)[C@H](Cc2ccc3ccccc3c2)NC(=O)[C@H](Cc2c[nH]c3ccccc23)NC(=O)[C@@H](CCCNC(=N)N)NC(=O)[C@H](CCCNC(=N)N)NC(=O)[C@H](CCCNC(=N)N)NC1=O [IFX-105, c[Arg-Arg-Arg-arg-Trp-NaI-NaI]] (cyclo([2Nal][2Nal]RRR[dR]W)) | 130 | 3.1 (≈ 2.57 µM) | 3.1 (≈ 2.57 µM) | – | 12.5 (≈ 10.4 µM) | 12.5 (≈ 10.4 µM)
N=C(N)NCCC[C@@H]1NC(=O)[C@H](CCCNC(=N)N)NC(=O)[C@H](Cc2ccc3ccccc3c2)NC(=O)[C@H](Cc2ccc3ccccc3c2)NC(=O)[C@@H](Cc2c[nH]c3ccccc23)NC(=O)[C@H](CCCNC(=N)N)NC(=O)[C@H](CCCNC(=N)N)NC1=O [IFX-104, c[Arg-Arg-Arg-Arg-trp-NaI-NaI]] (cyclo([2Nal][2Nal]RRRR[dW])) | 155 | 3.1 (≈ 2.57 µM) | 3.1 (≈ 2.57 µM) | – | 12.5 (≈ 10.4 µM) | 12.5 (≈ 10.4 µM)
N=C(N)NCCC[C@H]1NC(=O)[C@H](Cc2ccc3ccccc3c2)NC(=O)[C@H](Cc2ccc3ccccc3c2)NC(=O)[C@H](Cc2c[nH]c3ccccc23)NC(=O)[C@@H](CCCNC(=N)N)NC(=O)[C@@H](CCCNC(=N)N)NC(=O)[C@@H](CCCNC(=N)N)NC1=O [IFX-113, c[arg-arg-arg-arg-Trp-NaI-NaI]] (cyclo([dR][dR][dR][dR]W[2Nal][2Nal])) | 365 | 3.1 (≈ 2.57 µM) | 1.5 (≈ 1.24 µM) | – | 12.5 (≈ 10.4 µM) | 12.5 (≈ 10.4 µM)
